Data on one compound can be found in patent US9359371B2, “Bicyclic substituted pyrimidine compounds” (Xuanzhu Pharma Co., Ltd., priority 2012, dated 2016).

Read-outs that look alike come from different tables or passages of the source. Where only a bound is given, the exact number is not on record here.

In one series the target is PDE-5A enzyme (Homo sapiens (Human), UniProt O76074). Nature of the series: Caliper Mobility-Shift PDE-5A Assay. The following applies: Table 1; Avanafil value is the control. Type of series: biochemical.
Series [1] has as its target PDE-5 enzyme (human blood platelets) (Homo sapiens (Human), UniProt O76074). Kind of series: PDE-5 enzyme assay, [3H]cGMP. Type of series: biochemical.
For series [2], the target named is bovine retinal PDE-6 (Bos taurus (Bovine), UniProt P11541+P23439). Kind of series: PDE-6 enzyme assay, [3H]cGMP. Type of series: biochemical. On the procedure: (§1) Experiment 3: Measurement of Enzyme Activity on PDE-6 Enzyme In Vitro
(§2) Source of enzyme: PDE-6, bovine retinal PDE-6
(§3) Method: The test compound or solvent was incubated at 25° C. for 15 min with enzyme solution (0.2 μg/mL) in Tris-HCl buffer of pH 7.5. 100 μM cGMP and 0.03 μM [^3H] cGMP were then added to activate the reaction. The mixture was incubated for 20 min. The reaction was stopped at 100° C. By addition of snake venom nucleotidase, the product [^3H] GMP was converted into [^3H] Guanosine, which was separated with AG1-X2 resin. The amount of [^3H] Guanosine was measured.

The subject of series [3] is bovine retinal PDE-6. Nature of the series: PDE-6 enzyme assay, [3H]cGMP. Type of series: biochemical. On the procedure:
as §1, §2, §3

For another series, the target named is PDE-11 (Homo sapiens (Human), UniProt Q9HCR9). Kind of series: Caliper Mobility-Shift PDE-11 Assay. In kind it is biochemical. The following applies: Table 4; maximum final concentration 10 μM. On the procedure: Experiment 4: Measurement of Pharmacological Activity on PDE-11 Enzyme In Vitro
Method: enzyme assay, Caliper Mobility-Shift PDE-11 Assay
The test compound was accurately weighed, dissolved in DMSO, mixed thoroughly and formulated into 10 mM. The above stock solution was diluted to a concentration of 0.5 mM with DMSO, and then was gradiently diluted by a dilution factor of 3.162, resulting in 11 concentrations in total.
To a 96-well plate, 20 μL of 10 μM FL-cGMP as the substrate was added; then 1 μL solution of the compound in DMSO or DMSO solution without compound was added; and then 29 μL of 0.28 ng/μL PDE-11 enzyme buffer (100 mM Hepes pH 7.5, 5 mM MgCl2, 0.002% Brij-35) was added. The maximum final concentration of the compound was 10 μM. The plate was incubated at 30° C. for 1 h, and 20 μL of 70 μM EDTA was then added to stop the reaction. 26 μL of solution of each well was transferred to a 384-well plate. The conversion was read on a EZ reader II. The Inhibition rate was calculated by the formula below, and used to calculate IC50 by Prism 5.0 Inhibition rate=[Conversion (ZPE)−Conversion (sample)]×100/[Conversion (ZPE)−Conversion (HPE)]
Note: HPE: control without enzyme; ZPE: control without compound

The subject of series [4] is length of New Zealand rabbit's penis. Nature of the series: Pharmacological activity in vivo (oral administration, 70 mg/kg, with SNP), rabbit penis length. Details: species or system New Zealand rabbits. To be noted: Table 8; oral 70 mg/kg; SNP 0.2 mg/kg iv 60 min after; 0-180 min. On the procedure: Experiment 7: Assay of Pharmacological Activity In Vivo (Oral Administration)
After accommodating with the environment, the New Zealand rabbits were grabbed everyday. When the rabbits were accustomed to the repeated grabbing, drug administration was began. The animals were randomly divided into groups by weight, with 6 rabbits of each group. […] The corresponding test compounds were orally administrated to animals of each group. The dosage was 70 mg/kg, and the administration volume was 1 mL/kg. SNP (0.2 mg/kg, 0.5 mL/kg) was injected into the auricular veins of rabbits 60 min after the administration of the test compounds. The length of the rabbit's penis was measured with a digital caliper before and 10, 15, 30, 50, 60, 65, 70, 75, 90, 110, 120 and 180 min after the administration. Touch of the rabbit's penis by the caliper was avoided during the measurements.

Series [5] is described as follows: Pharmacokinetics (PK) in SD rats. In kind it is in vivo. To be noted: rat, 1 mg/kg.
Setting [6] is: SD, plasma, po, intragastric administration.
The mark [7] stands for this setting: SD, plasma, intravenous injection.

Sequence of bovine retinal PDE-6 (Bos taurus (Bovine), UniProt P11541+P23439) (P11541 whole entry, looked up): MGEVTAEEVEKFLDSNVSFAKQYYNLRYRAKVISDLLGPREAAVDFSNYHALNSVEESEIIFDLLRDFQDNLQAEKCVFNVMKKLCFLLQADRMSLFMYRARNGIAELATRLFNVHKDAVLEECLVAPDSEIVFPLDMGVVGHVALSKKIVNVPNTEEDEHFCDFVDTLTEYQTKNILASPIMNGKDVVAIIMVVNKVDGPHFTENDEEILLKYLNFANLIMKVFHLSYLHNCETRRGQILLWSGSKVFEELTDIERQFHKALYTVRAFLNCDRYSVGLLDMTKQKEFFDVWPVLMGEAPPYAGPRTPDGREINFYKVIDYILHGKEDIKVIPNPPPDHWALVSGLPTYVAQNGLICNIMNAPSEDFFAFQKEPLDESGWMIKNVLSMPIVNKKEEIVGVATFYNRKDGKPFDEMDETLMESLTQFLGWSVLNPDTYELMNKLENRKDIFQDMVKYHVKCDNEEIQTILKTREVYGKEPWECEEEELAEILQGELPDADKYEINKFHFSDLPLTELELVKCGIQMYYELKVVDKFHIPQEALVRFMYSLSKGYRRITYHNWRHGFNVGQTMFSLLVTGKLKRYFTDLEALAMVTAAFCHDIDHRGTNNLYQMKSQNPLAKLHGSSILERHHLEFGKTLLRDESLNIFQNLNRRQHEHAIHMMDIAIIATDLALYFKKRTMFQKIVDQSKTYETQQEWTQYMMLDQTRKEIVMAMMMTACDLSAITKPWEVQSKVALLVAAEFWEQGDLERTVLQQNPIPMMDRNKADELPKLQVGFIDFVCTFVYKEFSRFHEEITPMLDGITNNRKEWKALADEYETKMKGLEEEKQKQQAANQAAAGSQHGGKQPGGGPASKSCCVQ
Sequence of bovine retinal PDE-6 (Bos taurus (Bovine), UniProt P11541+P23439) (P23439 whole entry, looked up): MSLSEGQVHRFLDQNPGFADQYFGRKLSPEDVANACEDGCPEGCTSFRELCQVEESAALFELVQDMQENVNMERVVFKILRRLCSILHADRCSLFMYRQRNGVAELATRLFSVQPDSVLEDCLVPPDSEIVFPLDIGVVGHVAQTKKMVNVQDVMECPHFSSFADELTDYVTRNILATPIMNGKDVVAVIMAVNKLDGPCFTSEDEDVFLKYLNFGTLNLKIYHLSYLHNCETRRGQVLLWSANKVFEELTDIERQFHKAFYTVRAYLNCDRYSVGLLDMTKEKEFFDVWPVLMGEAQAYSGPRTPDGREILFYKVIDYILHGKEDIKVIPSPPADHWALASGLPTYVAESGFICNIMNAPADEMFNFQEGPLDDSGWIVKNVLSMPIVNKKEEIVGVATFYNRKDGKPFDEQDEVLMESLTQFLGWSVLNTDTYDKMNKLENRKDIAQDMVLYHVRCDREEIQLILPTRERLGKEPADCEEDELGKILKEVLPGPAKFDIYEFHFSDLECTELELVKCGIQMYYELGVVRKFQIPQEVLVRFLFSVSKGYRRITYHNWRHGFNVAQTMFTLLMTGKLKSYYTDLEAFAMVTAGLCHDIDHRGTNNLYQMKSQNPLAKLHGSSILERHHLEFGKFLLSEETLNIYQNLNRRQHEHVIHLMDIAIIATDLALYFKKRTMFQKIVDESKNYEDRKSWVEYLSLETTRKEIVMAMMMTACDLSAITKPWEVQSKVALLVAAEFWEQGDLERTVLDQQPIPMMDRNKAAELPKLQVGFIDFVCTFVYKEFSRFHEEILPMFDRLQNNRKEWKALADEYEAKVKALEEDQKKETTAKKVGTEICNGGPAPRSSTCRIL
Sequence of PDE-11 (Q9HCR9 whole entry): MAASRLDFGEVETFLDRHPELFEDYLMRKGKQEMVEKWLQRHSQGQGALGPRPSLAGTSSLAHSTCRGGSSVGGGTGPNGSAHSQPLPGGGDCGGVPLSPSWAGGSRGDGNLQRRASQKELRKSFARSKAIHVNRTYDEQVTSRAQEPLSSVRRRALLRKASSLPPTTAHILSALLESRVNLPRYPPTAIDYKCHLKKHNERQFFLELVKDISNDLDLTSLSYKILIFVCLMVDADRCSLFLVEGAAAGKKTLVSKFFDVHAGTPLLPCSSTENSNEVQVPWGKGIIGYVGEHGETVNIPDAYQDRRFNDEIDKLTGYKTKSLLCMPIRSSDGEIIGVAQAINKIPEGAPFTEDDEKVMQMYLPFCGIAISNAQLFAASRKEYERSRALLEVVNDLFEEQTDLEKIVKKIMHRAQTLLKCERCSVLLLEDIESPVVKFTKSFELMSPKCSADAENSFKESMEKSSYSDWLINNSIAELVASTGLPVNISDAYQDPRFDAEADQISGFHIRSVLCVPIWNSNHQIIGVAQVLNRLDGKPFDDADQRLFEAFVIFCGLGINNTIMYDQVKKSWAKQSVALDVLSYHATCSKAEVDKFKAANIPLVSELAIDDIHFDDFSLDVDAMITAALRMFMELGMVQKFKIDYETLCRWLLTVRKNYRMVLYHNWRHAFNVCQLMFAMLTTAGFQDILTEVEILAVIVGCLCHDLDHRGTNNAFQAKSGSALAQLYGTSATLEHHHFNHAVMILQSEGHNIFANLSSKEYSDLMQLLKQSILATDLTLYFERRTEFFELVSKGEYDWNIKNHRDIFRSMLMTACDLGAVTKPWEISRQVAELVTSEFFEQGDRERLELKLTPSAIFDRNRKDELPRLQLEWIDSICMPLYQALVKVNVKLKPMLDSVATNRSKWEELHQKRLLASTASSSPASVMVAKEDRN

In general, IC50 refers to the concentration that inhibits the measured activity by half. Usually AUC(0-inf) stands for the area under the concentration-time curve extrapolated to infinity. A high value points to more exposure. As usually defined, the Cmax is the peak of the concentration-time curve. For orientation: Tmax means the time from dosing to the highest level. The term half-life denotes the time needed for the level to fall by half in the phase considered. The low end stands for fast loss, the high end for slow loss. In general, bioavailability refers to the share of a dose that reaches the circulation, judged against a reference dose that is usually intravenous. Regarding `COc1ccc(CNc2nc(N3CC4CC4C3)ncc2C(=O)N[C@H]2CC[C@H](O)CC2)cc1Cl` (stereo partly drawn) [Compound 11, 2-(3-azabicyclo[3.1.0]hexan-3-yl)-4-((3-chloro-4-methoxybenzyl)amino)-N-(trans-4-hydroxycyclohexyl)pyrimidine-5-formamide], the IC50 amounted to 4.02 nM at PDE-5A enzyme; 0.41 nM in series [1] (Table 2-1, repetition, read-out: IC50 on PDE-5 (repetition of Example 2)); 1.31 nM in series [1] (Table 2, human blood platelet enzyme, read-out: IC50 on PDE-5); 0.41 nM in series [1] (Table 4-1, read-out: PDE-5 (IC50 nM)); 61 nM on bovine retinal PDE-6 [2] (Table 3, read-out: IC50 on PDE-6); 61 nM at bovine retinal PDE-6 [2] (Table 4-1, read-out: PDE-6 (IC50 nM)). On PDE-11, the IC50 is greater than 10000 nM. The “Selectivity (PDE-6/PDE-5)” value with bovine retinal PDE-6 [3] (IC50 for PDE-6/IC50 for PDE-5) was determined as 148. Besides, the “selectivity on PDE-5 enzyme versus PDE-6 (in words)” value with bovine retinal PDE-6 [3] (selectivity >70 called high) was “higher selectivity on PDE-5 enzyme than to PDE-6”. Moreover, the “AUC of penis length” value in series [4] is 540.7 mm × min. The AUC(0-inf) came to 604 ng·h/mL in series [5] (setting [6]) and 858 ng·h/mL in series [5] (setting [7]). The compound further gave a Cmax in series [5] (setting [6]) of 133 ng/mL. In addition, the time of peak concentration (Tmax) in series [5] (setting [6]) came to 1 h. In addition, the half-life in series [5] (setting [6]) is 2.03 h; in series [5] (setting [7]) it was 2.4 h. Besides, in series [5] (SD, plasma, po, intragastric administration, read-out: F % (absolute bioavailability)), the bioavailability amounted to 70.4%. Besides, the AUCinf result in series [5] (intragastric administration) and in series [5] (intravenous injection) was “higher exposure quality (AUC)” each time. Also, the “F % (absolute bioavailability)” value in series [5] (intragastric administration) is “higher exposure quality (AUC) and bioavailability than Compound WO-88”. Further, the Cl_obs in series [5] (intravenous injection) came out at 19.7 mL/min/kg. Also, the T1/2 entry in series [5] (intravenous injection) was “longer half-life”. The same compound yielded a Vss_obs in series [5] (intravenous injection) of 3.44 L/kg.
